We go through 23 molecules from patent US10214512B2, “Factor XIA inhibitors” (MERCK SHARP & DOHME CORP., priority 2015, dated 2019).

The term Ki denotes a dissociation constant, usually derived from enzyme kinetics or from competition with a known ligand.

The target of assay [1] is purified Human plasma Kallikrein (Homo sapiens (Human), UniProt P03952). The assay is described as follows: Kallikrein Assay. The note with it: purified Human plasma Kallikrein 0.5 nM; substrate Acetyl-K-P-R-AFC; 50 mM HEPES pH 7.4; Ki from IC50 by Cheng Prusoff. It is filed as biochemical. The method, boiled down:
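Purified human plasma kallikrein (0.5 nM) with fluorogenic Ac-K-P-R-AFC ([…]) in 50 mM HEPES pH 7.4, 150 mM NaCl, 5 mM CaCl2, 0.1% PEG 8000, at rt or 37 °C. Substrate hydrolysis rate read with and without inhibitor; IC50 from four-parameter logistic fit, converted to Ki by Cheng–Prusoff.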

Assay [2] deals with purified human Factor XIa (Homo sapiens (Human), UniProt P03951). In words: Factor XIa Assay. The note with it: purified human Factor XIa 40 pM; substrate Z-Gly-Pro-Arg-AFC 100 μM; 50 mM HEPES pH 7.4; read-out: Human FXIa Ki. It is filed as biochemical. The method in brief:
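Purified human FXIa at 40 pM final with fluorogenic Z-Gly-Pro-Arg-AFC at 100 μM, in 50 mM HEPES pH 7.4, 150 mM NaCl, 5 mM CaCl2, 0.1% PEG 8000, at rt or 37° C. Initial velocities measured after enzyme–inhibitor equilibration; Ki derived from Vo/Vi versus [I] assuming competitive inhibition.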

purified human Factor XIa, sequence (P03951 388-625): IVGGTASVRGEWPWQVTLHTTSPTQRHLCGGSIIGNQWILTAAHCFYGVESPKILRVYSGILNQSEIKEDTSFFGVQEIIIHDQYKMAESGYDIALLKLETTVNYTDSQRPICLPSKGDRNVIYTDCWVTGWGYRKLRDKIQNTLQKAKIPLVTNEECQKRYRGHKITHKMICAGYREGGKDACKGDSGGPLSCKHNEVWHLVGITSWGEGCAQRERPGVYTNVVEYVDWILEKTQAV
purified human Factor XIa, sequence (P03951 19-387 partner): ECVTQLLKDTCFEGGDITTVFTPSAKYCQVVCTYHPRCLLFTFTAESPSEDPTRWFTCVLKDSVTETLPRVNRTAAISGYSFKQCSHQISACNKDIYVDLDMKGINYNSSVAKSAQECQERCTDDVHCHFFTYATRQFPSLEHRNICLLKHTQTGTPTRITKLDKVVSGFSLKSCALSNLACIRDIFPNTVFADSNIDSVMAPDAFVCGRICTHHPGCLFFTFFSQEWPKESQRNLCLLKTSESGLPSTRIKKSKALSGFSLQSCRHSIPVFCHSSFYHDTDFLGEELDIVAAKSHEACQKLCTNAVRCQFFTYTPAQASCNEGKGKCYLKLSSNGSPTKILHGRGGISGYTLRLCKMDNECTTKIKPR
purified Human plasma Kallikrein, sequence (P03952 391-638): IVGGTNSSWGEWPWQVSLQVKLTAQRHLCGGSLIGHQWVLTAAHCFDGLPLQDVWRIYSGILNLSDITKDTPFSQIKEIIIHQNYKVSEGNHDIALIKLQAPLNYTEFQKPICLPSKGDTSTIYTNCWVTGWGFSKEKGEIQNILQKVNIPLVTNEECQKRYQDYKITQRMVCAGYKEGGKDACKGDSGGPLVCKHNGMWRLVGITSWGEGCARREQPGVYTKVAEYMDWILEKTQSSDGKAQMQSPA
purified Human plasma Kallikrein, sequence (P03952 20-390 partner): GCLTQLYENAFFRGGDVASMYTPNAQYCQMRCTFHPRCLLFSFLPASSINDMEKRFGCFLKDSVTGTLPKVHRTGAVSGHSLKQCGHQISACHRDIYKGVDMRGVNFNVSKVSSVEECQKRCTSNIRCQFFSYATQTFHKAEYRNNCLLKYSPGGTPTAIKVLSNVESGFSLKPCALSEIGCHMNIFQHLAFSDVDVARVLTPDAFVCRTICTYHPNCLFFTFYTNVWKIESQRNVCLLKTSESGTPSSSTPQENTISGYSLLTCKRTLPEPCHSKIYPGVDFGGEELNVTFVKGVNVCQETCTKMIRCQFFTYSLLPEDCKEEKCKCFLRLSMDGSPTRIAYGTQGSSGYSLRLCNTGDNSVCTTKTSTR

Turning to `COC(=O)Nc1ccc2c(c1)NC(=O)CCCC[C@H](c1ccc(-c3c(C(F)F)ccc(Cl)c3F)c[n+]1[O-])c1nc-2c(C)[nH]1` (single isomer, unassigned) [Example 124], the inhibitory constant (Ki) was found to be 0.73 nM in assay [1] and 0.2 nM in assay [2].
As for `O=C1CCCCC(c2ccc(-c3cc(Cl)ccc3-n3cnnn3)c[n+]2[O-])c2c[nH]c(n2)-c2cc(F)ccc2N1` (racemic) [Example 160, (Z)-5-(5-chloro-2-(1H-tetrazol-1-yl)phenyl)-2-(2^5-fluoro-4-oxo-1^1H-3-aza-1(2,4)-imidazola-2(1,2)-benzenacyclononaphane-9-yl)pyridine 1-oxide], the Ki was found to be 4 nM in assay [1] and 0.47 nM in assay [2].
Regarding `COC(=O)Nc1ccc2c(c1)NC(=O)CCCCC(c1ccc(-c3c(F)ccc(Cl)c3F)c[n+]1[O-])c1cc-2cc[n+]1[O-]` (stereo not shown) [Example 83, 9-(5-(3-chloro-2,6-difluorophenyl)-1-oxidopyridin-2-yl)-2^4-((methoxycarbonyl)amino)-4-oxo-3-aza-1(4,2)-pyridin-1-iuma-2(1,2)-benzenacyclononaphane 1^1-oxide], the Ki amounted to 5.47 nM in assay [1] and 2.2 nM in assay [2].
The like results for `CCOC(=O)Nc1ccc2c(c1)NC(=O)CCCC[C@H](c1ccc(-c3c(F)ccc(Cl)c3F)c[n+]1[O-])c1cccc-2c1` [Example 44, (s)-5-(3-chloro-2,6-difluorophenyl)-2-(2^4-((ethoxycarbonyl)amino)-4-oxo-3-aza-1(1,3),2(1,2)-dinenzenacyclononaphane-9-yl)pyridine 1-oxide] were, in that order, 2.7 nM and 1.23 nM.
The like results for `COC(=O)Nc1ccc2c(c1)NC(=O)CCCC[C@H](c1ccc(-c3cc(Cl)ccc3OC(F)(F)F)c[n+]1[O-])c1cccc-2c1` (single isomer, unassigned) [Example 30] were, in that order, 6.77 nM and 0.38 nM.
On to `COC(=O)Nc1ccc2c(c1)NC(=O)[C@@H](C)CCC[C@H](c1ccc(-c3c(F)cccc3F)c[n+]1[O-])c1nc-2c(C)[nH]1` (single isomer, unassigned) [Example 143-a], for which the figures for the Ki in assay [1] and in assay [2] were 1.61 nM and 0.33 nM, respectively.
Consider `COC(=O)Nc1ccc2c(c1)NC(=O)CCCCC(c1ccc(-c3cc(Cl)ccc3-n3cnnn3)c[n+]1[O-])c1cc-2[n+]([O-])cc1F` (single isomer, unassigned) [Example 81-a, 9-(5-(5-chloro-2-(1h-tetrazol-1-yl)phenyl)-1-oxidopyridin-2-yl)-1^5-fluoro-2^4-((methoxycarbonyl)amino)-4-oxo-3-aza-1(2,4)-pyridin-1-iuma-2(1,2)-benzenacyclononaphane 1^1-oxide], for which the Ki in assay [1] came out at 0.46 nM; in assay [2], 0.14 nM.
For `COC(=O)Nc1ccc2c(c1)NC(=O)CCCC[C@H](c1ccc(-c3cc(Cl)ccc3-n3cccn3)c[n+]1[O-])c1nc-2c(C)[nH]1` (single isomer, unassigned) [Example 139] the same measures were 22.2 nM and 0.35 nM.
For `COC(=O)Nc1ccc2c(c1)NC(=O)CCCCC(c1ccc(-c3c(OC(F)F)ccc(Cl)c3F)c[n+]1[O-])c1nc-2c[nH]1` (single isomer, unassigned) [Example 100-a, (Z)-5-(3-Chloro-6-(difluoromethoxy)-2-fluorophenyl)-2-(2^4-((methoxycarbonyl)amino)-4-oxo-1^1H-3-aza-1(4,2)-imidazola-2(1,2) -benzenacyclononaphane-9-yl)pyridine 1-oxide] the same measures were 1.02 nM and 0.33 nM.
The like results for `O=C(C1CCCCC(c2ccc(-c3cc(Cl)ccc3-n3cnnn3)c[n+]2[O-])c2cccc(c2)-c2cc(F)ccc2N1)N1CCCC1` (single isomer, unassigned) [Example 79-c, 5-(5-Chloro-2-(1H-tetrazol-1-yl)phenyl)-2-(2^5-fluoro-4-(pyrrolidine-1-carbonyl)-3-aza-1(1,3),2(1,2)-dibenzenacyclononaphane-9-yl)pyridine 1-oxide] were, in that order, 2920 nM and 52.2 nM.
For the molecule `COC(=O)Nc1cc(F)c2c(c1)NC(=O)C(C)CCCC(c1ccc(-c3c(F)ccc(Cl)c3F)c[n+]1[O-])c1cccc-2c1` (single isomer, unassigned) [Example 85-b, 5-(3-Chloro-2,6-difluorophenyl)-2-(2^6-fluoro-2^4-((methoxycarbonyl)amino)-5-methyl-4-oxo-3-aza-1(1,3),2(1,2)-dibenzenacyclononaphane-9-yl)pyridine 1-oxide], the Ki in assay [1] was 15.2 nM; in assay [2] it was 6 nM.
For `O=C1CCCCC(c2ccc(-c3c(F)ccc(Cl)c3F)c[n+]2[O-])c2nc(c[nH]2)-c2cc(F)ccc2N1` (single isomer, unassigned) [Example 104-a] the same measures were 26.3 nM and 10.8 nM.
The like results for `COC(=O)Nc1ccc2c(c1)NC(=O)CCCCC(c1ccc(-c3cc(Cl)ccc3OC(F)F)c[n+]1[O-])c1nc-2c[nH]1` (single isomer, unassigned) [Example 102-a, (Z)-5-(5-Chloro-2-(difluoromethoxy)phenyl)-2-(2^4-((methoxycarbonyl)amino)-4-oxo-1^1H-3-aza-1(4,2)-imidazola-2(1,2) -benzenacyclononaphane-9-yl)pyridine 1-oxide] were, in that order, 0.43 nM and 0.14 nM.
`COC(=O)Nc1ccc2c(c1)NC(=O)CCCCC(c1ccc(-c3cc(Cl)ccc3-n3cnnn3)cn1)c1cc-2ncn1` (stereo not shown) [Example 65, methyl (9-(5-(5-chloro-2-(1h-tetrazol-1-yl)phenyl)pyridin-2-yl)-4-oxo-3-aza-1(4,6)-pyrimidina-2(1,2)-benzenacyclononaphane-2^4-yl)carbamate]: the Ki in assay [1] is 6 nM; in assay [2] it was 2.9 nM.
For `COC(=O)Nc1ccc2c(c1)NC(=O)C[C@H]1C[C@@H]1C[C@H](c1ccc(-c3c(F)ccc(Cl)c3F)c[n+]1[O-])c1cccc-2c1` (single isomer, unassigned) [Example 66], the Ki in assay [1] worked out at 10.2 nM; in assay [2], 2.1 nM.
The like results for `COC(=O)Nc1ccc2c(c1)NC(=O)CCCCC(c1ccc(-c3cc(Cl)ccc3-n3cc(C(F)F)nn3)c[n+]1[O-])c1cccc-2c1` (single isomer, unassigned) [Example 36-a, 5-(5-chloro-2-(4-(difluoromethyl)-1H-1,2,3-triazol-1-yl)phenyl)-2-(2^4-((methoxycarbonyl)amino)-4-oxo-3-aza-1(1,3),2(1,2)-dibenzenacyclononaphane-9-yl)pyridine 1-oxide] were, in that order, 0.81 nM and 0.26 nM.
For `C[C@@H]1CCC[C@H](c2ccc(-c3cc(Cl)ccc3-n3cnnn3)c[n+]2[O-])c2cccc(c2)-c2cc(F)ccc2NC1=O` [Example 3-d, 5-(5-Chloro-2-(1H-tetrazol-1-yl)phenyl)-2-((5R,9S)-2^5-fluoro-5-methyl-4-oxo-3-aza-1(1,3),2(1,2)-dibenzenacyclononaphane-9-yl)pyridine 1-oxide] the same measures were 0.59 nM and 0.18 nM.
For the molecule `COC(=O)Nc1ccc2c(c1)NC(=O)C(C)CCCC(c1ccc(-c3c(F)ccc(Cl)c3F)c[n+]1[O-])c1ccc(F)c-2c1` (single isomer, unassigned) [Example 86-a, 5-(3-Chloro-2,6-difluorophenyl)-2-(1^6-fluoro-2^4-((methoxycarbonyl)amino)-5-methyl-4-oxo-3-aza-1(1,3),2(1,2) -dibenzenacyclononaphane-9-yl)pyridine 1-oxide], the Ki in assay [1] worked out at 1.29 nM; in assay [2] it was 6.34 nM.
For `COC(=O)Nc1ccc2c(c1)NC(=O)CCCCC(c1ccc(-c3c(F)cc(I)c(Cl)c3F)c[n+]1[O-])c1nc-2c[nH]1` (single isomer, unassigned) [Example 103-a, (Z)-5-(3-Chloro-2,6-difluoro-4-iodophenyl)-2-(2^4-((methoxycarbonyl)amino)-4-oxo-1^1H-3-aza-1(4,2)-imidazola-2(1,2) -benzenacyclononaphane-9-yl)pyridine 1-oxide] the same measures were 137 nM and 1.7 nM.
The like results for `C[C@H]1CCC[C@@H](c2ccc(-c3cc(Cl)ccc3-n3cnnn3)c[n+]2[O-])c2cccc(c2)-c2cc(F)ccc2NC1=O` [Example 3-c, 5-(5-Chloro-2-(1H-tetrazol-1-yl)phenyl)-2-((5S,9R)-2^5-fluoro-5-methyl-4-oxo-3-aza-1(1,3),2(1,2)-dibenzenacyclononaphane-9-yl)pyridine 1-oxide] were, in that order, 660 nM and 26.3 nM.
The like results for `COC(=O)Nc1ccc2c(c1)NC(=O)CCCC[C@H](c1ccc(-c3cc(Cl)ccc3OC(F)F)c[n+]1[O-])c1cccc-2c1` (single isomer, unassigned) [Example 33] were, in that order, 1.67 nM and 0.28 nM.
Consider `COC(=O)Nc1ccc2c(c1)NC(=O)CCCC[C@H](c1ccc(-c3cc(F)ccc3OC(F)F)c[n+]1[O-])c1nc-2c(C)[nH]1` (single isomer, unassigned) [Example 129], for which the Ki in assay [1] was determined as 1.72 nM; in assay [2], 0.12 nM.
For `Nc1ccc2c(c1)NC(=O)CCCCC(c1ccc(-c3c(F)ccc(Cl)c3F)c[n+]1[O-])c1cccc-2c1` (single isomer, unassigned) [Example 43-a, 2-(2^4-amino-4-oxo-3-aza-1(1,3),2(1,2)-dinenzenacyclononaphane-9-yl)-5-(3-chloro-2,6-difluorophenyl)pyridine 1-oxide] the same measures were 7 nM and 1.7 nM.
